Measured values taken from patent US20110152166A1, “METHOD OF MODULATION OF PROTEIN PHOSPHORYLATION-DEPENDENT CONFORMATIONAL TRANSITIONS WITH LOW MOLECULAR WEIGHT COMPOUNDS” (priority 2006, published 2011).

Assays:
[1] = target: T1, PKCζ (Homo sapiens, UniProt Q05513); test: AGC kinase panel activity assay (MBP); format: biochemical; settings: for PKCξ (%) activity: 1% DMSO = 100%
T1 construct: deuteron uptake in a full-length AGC kinase; For this analysis we chose PKCζ; made in house; host or cells: HEK293
T1 sequence (Q05513 1-592): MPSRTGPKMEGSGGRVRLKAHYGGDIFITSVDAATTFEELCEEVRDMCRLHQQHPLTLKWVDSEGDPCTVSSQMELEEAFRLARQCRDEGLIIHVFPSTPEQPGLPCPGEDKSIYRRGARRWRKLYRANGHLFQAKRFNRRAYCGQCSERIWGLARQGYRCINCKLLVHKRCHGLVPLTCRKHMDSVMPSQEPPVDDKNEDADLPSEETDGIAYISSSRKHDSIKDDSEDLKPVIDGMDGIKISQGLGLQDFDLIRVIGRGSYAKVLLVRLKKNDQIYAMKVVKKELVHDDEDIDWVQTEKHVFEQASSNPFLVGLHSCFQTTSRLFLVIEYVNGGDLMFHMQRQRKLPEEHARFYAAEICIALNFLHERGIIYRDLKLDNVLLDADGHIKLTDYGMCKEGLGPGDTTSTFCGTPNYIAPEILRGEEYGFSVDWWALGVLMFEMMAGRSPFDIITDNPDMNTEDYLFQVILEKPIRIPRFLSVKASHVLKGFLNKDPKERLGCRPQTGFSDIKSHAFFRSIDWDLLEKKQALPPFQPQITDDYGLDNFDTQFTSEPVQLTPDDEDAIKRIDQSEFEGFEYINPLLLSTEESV
Method: Protein kinase activity tests were performed essentially as previously described (Balendran et al., 2000; Biondi et al., 2000; Biondi et al., 2001). Substrates used were either MBP (for PKCζ or polypeptides (Crosstide for PKB, S6K, SGK and PRK2; T308tide for PDK1, and Kemptide for PKA). PKA (Sigma) was measured in the presence of 100 μM cAMP. Alternatively, assays were performed in a 96 well format, aliquots spotted on p81 phosphocellulose papers (Whatmann), washed in 0.01% phosphoric acid, dried, and then exposed and analysed using Phospholmager technology (Storm, Molecular Dynamics). Activity measurements were performed in duplicates with less than 10% difference between duplicate pairs. Experiments were repeated at least twice, although most of the experiments were repeated multiple times, with similar results.
Activity assays for each kinase were performed as described in Materials and Methods in the presence of 1% DMSO (100%). Except PKA, all protein kinases were produced as a GST-fusion. S6K1, PKBα, SGK mutants used were S6K1-T2-[Thr412Glu], PKBa[Ser473Asp] and ΔN-SGK[Ser422Asp].

[2] = target: T2, PDK1 activation of SGK1 [Ser422Asp] (Homo sapiens, UniProt O15530); test: SGK1 activation by PDK1 in vitro; format: biochemical; settings: compound 60 μM
T2 construct: GST (N); made in house; host or cells: HEK293
T2 sequence (O15530 whole entry, change not shown): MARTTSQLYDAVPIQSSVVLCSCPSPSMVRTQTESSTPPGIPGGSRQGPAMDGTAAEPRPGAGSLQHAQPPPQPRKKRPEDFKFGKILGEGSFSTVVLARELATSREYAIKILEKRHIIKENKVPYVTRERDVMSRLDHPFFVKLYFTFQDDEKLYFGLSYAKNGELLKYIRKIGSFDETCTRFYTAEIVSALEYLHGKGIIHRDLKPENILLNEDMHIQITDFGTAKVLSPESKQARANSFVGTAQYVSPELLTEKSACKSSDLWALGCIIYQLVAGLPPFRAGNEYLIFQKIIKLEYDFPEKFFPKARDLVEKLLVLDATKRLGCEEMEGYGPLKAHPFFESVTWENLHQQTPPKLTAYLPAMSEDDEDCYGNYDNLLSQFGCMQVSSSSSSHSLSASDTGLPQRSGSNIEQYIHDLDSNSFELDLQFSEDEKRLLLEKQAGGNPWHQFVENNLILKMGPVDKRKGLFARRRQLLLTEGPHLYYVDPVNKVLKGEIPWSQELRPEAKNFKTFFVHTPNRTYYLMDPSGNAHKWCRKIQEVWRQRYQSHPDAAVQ
Method: (§1) FIG. 4—Small compounds designed to bind the HM/PIF-pocket of PDK1 can block the PDK1-dependent phosphorylation and activation of substrates that require docking to the HM/PIF-pocket of PDK1. (A) Effect of compound 1 (100 and 200 μM) on PDK1 phosphorylation of its substrate S6K1. The phosphorylation reaction was performed in vitro with [γ^32P]ATP and then separated on SDS-PAGE followed by exposure to phosphorimager. The radioactive band corresponding to phosphorylated GST-56K1-T2[Thr412Glu] (S6K[412E]) is indicated. (B) PDK1 or PDK1[Val127Leu] (PDK1[V127L]) were pre-incubated with GST-[…]N-SGK1 [Ser422Asp] […] (C) The activity of S6K was measured in vitro after glutathione sepharose purification; aliquots of purified proteins were separated on SDS-PAGE and the level of activation loop phosphorylation was visualized by immunoblotting using phospho-specific antibodies that recognize the phosphorylated activation loop, followed by stripping of the membranes and re-probing with anti-GST to verify the presence of equal amounts of protein. (D) Cells overexpressing GST-56K1-T2[Thr412Glu] were treated as in (C) but S6K activity was measured in vitro after immunoprecipitation of the GST-fusion protein with anti-GST antibodies; the level of S6K expression was analysed by western-blotting of crude extracts. […]

[3] = tested on: GST-S6K1-T2[Thr412Glu] in HEK 293 cells; test: S6K activity and activation loop phosphorylation in transfected HEK 293 cells; format: cell-based, human; settings: 200 μM, 90 minutes
Method: as §1

## O=C(O)CSC(CC(=O)c1ccc(Cl)cc1)c1ccccc1 (stereo not drawn) [Compound 1]
[1]; 20 μM
  effect on PKCζ activity (in words): no significant effect
[1]; 20 μM compound
  PKCξ (%) activity: 94%
[1]; 200 μM compound
  PKCξ (%) activity: 21%
[1]; panel, concentration not given
  inhibition of PKCζ (in words): inhibited PKCζ
[2]
  SGK1 activation by PDK1 (in words): inhibited
[3]
  S6K1-T2[Thr412Glu] activity after cell treatment (in words): decrease
  phosphorylation at the activation loop of S6K1-T2[Thr412Glu] (in words): decrease in the phosphorylation at the activation loop

## COC(=O)CSC(CC(=O)c1ccc(Cl)cc1)c1ccccc1 (stereo not drawn) [Compound 2]
[1]; 20 μM compound
  PKCξ (%) activity: 104%
[1]; 200 μM compound
  PKCξ (%) activity: 86%
